Assay results: the NIST ThermoML archive (doi:10.1016/j.jct.2016.04.003)

Experiment: xn = mol fraction of the nth substance listed
Conditions: for surface tension liquid-gas: Drop volume; for viscosity / speed of sound / mass density: 99 kPa, Liquid; for viscosity: Capillary tube (Ostwald / Ubbelohde) method; for speed of sound: Frequency=3 MHz, Sing-around technique in a fixed-path interferometer; for mass density: Vibrating tube method

CCCC[n+]1ccccc1.F[B-](F)(F)F [1-butylpyridinium tetrafluoroborate] + O
Conditions	mass density [kg/m3]	speed of sound [m/s]	surface tension liquid-gas [mN/m]	viscosity [mPa·s]
293.15 K, x1 = 0.0115	–	–	57.1	–
293.15 K, x1 = 0.0165	1028.6	1539	–	–
293.15 K, x1 = 0.0185	–	–	54.3	–
293.15 K, x1 = 0.0271	–	–	52.5	–
293.15 K, x1 = 0.0372	–	–	51.3	–
293.15 K, x1 = 0.0379	1058	1572.7	–	–
293.15 K, x1 = 0.0456	–	–	50.7	–
293.15 K, x1 = 0.047	–	–	–	1.379
293.15 K, x1 = 0.0863	1100.2	1606.7	–	–
293.15 K, x1 = 0.0942	–	–	49.2	–
293.15 K, x1 = 0.095	–	–	–	1.806
293.15 K, x1 = 0.101	1109.3	1612.3	–	–
293.15 K, x1 = 0.134	1125.6	1620.9	–	–
293.15 K, x1 = 0.1907	–	–	48.7	–
293.15 K, x1 = 0.2001	–	–	–	3.439
293.15 K, x1 = 0.243	1158.2	1630	–	–
293.15 K, x1 = 0.2846	–	–	48.3	–
293.15 K, x1 = 0.289	1167	1629.4	–	–
293.15 K, x1 = 0.2912	–	–	–	5.459
293.15 K, x1 = 0.34	–	–	48.3	–
293.15 K, x1 = 0.3456	1175.6	1627.7	–	–
293.15 K, x1 = 0.3866	–	–	48	–
293.15 K, x1 = 0.4015	–	–	–	10.4
293.15 K, x1 = 0.4217	1184.5	1624.5	–	–
293.15 K, x1 = 0.4807	–	–	–	15.2
293.15 K, x1 = 0.486	–	–	47.7	–
293.15 K, x1 = 0.5485	1195.4	1619.7	–	–
293.15 K, x1 = 0.5777	–	–	47.5	–
293.15 K, x1 = 0.5815	–	–	–	23.72
293.15 K, x1 = 0.6029	1199	1618	–	–
293.15 K, x1 = 0.6641	–	–	–	34.53
293.15 K, x1 = 0.6943	–	–	47.3	–
293.15 K, x1 = 0.7232	1205.7	1614.9	–	–
293.15 K, x1 = 0.7779	–	–	47	–
293.15 K, x1 = 0.7855	–	–	–	67.74
293.15 K, x1 = 0.8005	1209.3	1613.5	–	–
293.15 K, x1 = 0.835	–	–	46.8	–
293.15 K, x1 = 0.8575	1211.7	1612.8	–	–
293.15 K, x1 = 0.8875	–	–	–	121.1
293.15 K, x1 = 0.925	–	–	46.8	–
293.15 K, x1 = 0.9305	–	–	–	149.6
293.15 K, x1 = 0.9315	1214.5	1612	–	–
293.15 K, x1 = 0.9705	–	–	–	189.6
293.15 K, x1 = 1	1217.1	1611.5	46.9	220.5
303.15 K, x1 = 0.0115	–	–	56.4	–
303.15 K, x1 = 0.0165	1025.3	1552	–	–
303.15 K, x1 = 0.0185	–	–	54	–
303.15 K, x1 = 0.0271	–	–	52.1	–
303.15 K, x1 = 0.0372	–	–	51	–
303.15 K, x1 = 0.0379	1053.9	1576.9	–	–
303.15 K, x1 = 0.0456	–	–	50.4	–
303.15 K, x1 = 0.047	–	–	–	1.082
303.15 K, x1 = 0.0863	1094.8	1600.1	–	–
303.15 K, x1 = 0.0942	–	–	49.1	–
303.15 K, x1 = 0.095	–	–	–	1.333
303.15 K, x1 = 0.101	1103.7	1603.2	–	–
303.15 K, x1 = 0.134	1119.5	1608.1	–	–
303.15 K, x1 = 0.1907	–	–	48.5	–
303.15 K, x1 = 0.2001	–	–	–	2.475
303.15 K, x1 = 0.243	1151.3	1610.7	–	–
303.15 K, x1 = 0.2846	–	–	48.1	–
303.15 K, x1 = 0.289	1159.9	1608.8	–	–
303.15 K, x1 = 0.2912	–	–	–	4.217
303.15 K, x1 = 0.34	–	–	47.9	–
303.15 K, x1 = 0.3456	1168.3	1606.1	–	–
303.15 K, x1 = 0.3866	–	–	47.6	–
303.15 K, x1 = 0.4015	–	–	–	7.329
303.15 K, x1 = 0.4217	1177.2	1602.7	–	–
303.15 K, x1 = 0.4807	–	–	–	10.67
303.15 K, x1 = 0.486	–	–	47.3	–
303.15 K, x1 = 0.5485	1188	1597.4	–	–
303.15 K, x1 = 0.5777	–	–	47	–
303.15 K, x1 = 0.5815	–	–	–	15.59
303.15 K, x1 = 0.6029	1191.7	1595.6	–	–
303.15 K, x1 = 0.6641	–	–	–	22.31
303.15 K, x1 = 0.6943	–	–	46.7	–
303.15 K, x1 = 0.7232	1198.5	1592.3	–	–
303.15 K, x1 = 0.7779	–	–	46.5	–
303.15 K, x1 = 0.7855	–	–	–	41.77
303.15 K, x1 = 0.8005	1202.2	1590.7	–	–
303.15 K, x1 = 0.835	–	–	46.2	–
303.15 K, x1 = 0.8575	1204.6	1589.7	–	–
303.15 K, x1 = 0.8875	–	–	–	72.76
303.15 K, x1 = 0.925	–	–	46.2	–
303.15 K, x1 = 0.9305	–	–	–	90.38
303.15 K, x1 = 0.9315	1207.6	1588.9	–	–
303.15 K, x1 = 0.9705	–	–	–	106.5
303.15 K, x1 = 1	1210.3	1588.1	46.3	119.5
313.15 K, x1 = 0.0115	–	–	55.5	–
313.15 K, x1 = 0.0165	1021.2	1560	–	–
313.15 K, x1 = 0.0185	–	–	53	–
313.15 K, x1 = 0.0271	–	–	51.6	–
313.15 K, x1 = 0.0372	–	–	50.3	–
313.15 K, x1 = 0.0379	1049.2	1576.8	–	–
313.15 K, x1 = 0.0456	–	–	49.9	–
313.15 K, x1 = 0.047	–	–	–	0.845
313.15 K, x1 = 0.0863	1089.2	1590.3	–	–
313.15 K, x1 = 0.0942	–	–	48.5	–
313.15 K, x1 = 0.095	–	–	–	1.16
313.15 K, x1 = 0.101	1097.8	1591.9	–	–
313.15 K, x1 = 0.134	1113.3	1593.4	–	–
313.15 K, x1 = 0.1907	–	–	47.9	–
313.15 K, x1 = 0.2001	–	–	–	1.741
313.15 K, x1 = 0.243	1144.4	1590.6	–	–
313.15 K, x1 = 0.2846	–	–	47.7	–
313.15 K, x1 = 0.289	1152.9	1587.9	–	–
313.15 K, x1 = 0.2912	–	–	–	2.929
313.15 K, x1 = 0.34	–	–	47.6	–
313.15 K, x1 = 0.3456	1161.3	1585	–	–
313.15 K, x1 = 0.3866	–	–	47.6	–
313.15 K, x1 = 0.4015	–	–	–	5.101
313.15 K, x1 = 0.4217	1170.1	1580.8	–	–
313.15 K, x1 = 0.4807	–	–	–	8.106
313.15 K, x1 = 0.486	–	–	47	–
313.15 K, x1 = 0.5485	1180.9	1575.2	–	–
313.15 K, x1 = 0.5777	–	–	46.6	–
313.15 K, x1 = 0.5815	–	–	–	11.33
313.15 K, x1 = 0.6029	1184.6	1573.3	–	–
313.15 K, x1 = 0.6641	–	–	–	15.02
313.15 K, x1 = 0.6943	–	–	46.2	–
313.15 K, x1 = 0.7232	1191.6	1569.9	–	–
313.15 K, x1 = 0.7779	–	–	45.9	–
313.15 K, x1 = 0.7855	–	–	–	26.33
313.15 K, x1 = 0.8005	1195.3	1568.4	–	–
313.15 K, x1 = 0.835	–	–	45.7	–
313.15 K, x1 = 0.8575	1197.8	1567.3	–	–
313.15 K, x1 = 0.8875	–	–	–	44.04
313.15 K, x1 = 0.925	–	–	45.7	–
313.15 K, x1 = 0.9305	–	–	–	53.39
313.15 K, x1 = 0.9315	1200.9	1566.3	–	–
313.15 K, x1 = 0.9705	–	–	–	63.74
313.15 K, x1 = 1	1203.7	1565.6	45.7	71.1
323.15 K, x1 = 0.0115	–	–	54.5	–
323.15 K, x1 = 0.0165	1016.5	1561.9	–	–
323.15 K, x1 = 0.0185	–	–	52	–
323.15 K, x1 = 0.0271	–	–	50.5	–
323.15 K, x1 = 0.0372	–	–	49.5	–
323.15 K, x1 = 0.0379	1043.9	1571.9	–	–
323.15 K, x1 = 0.0456	–	–	48.7	–
323.15 K, x1 = 0.047	–	–	–	0.708
323.15 K, x1 = 0.0863	1083	1577.9	–	–
323.15 K, x1 = 0.0942	–	–	47.7	–
323.15 K, x1 = 0.095	–	–	–	0.867
323.15 K, x1 = 0.101	1091.5	1577.7	–	–
323.15 K, x1 = 0.134	1106.6	1576.8	–	–
323.15 K, x1 = 0.1907	–	–	47.1	–
323.15 K, x1 = 0.2001	–	–	–	1.418
323.15 K, x1 = 0.243	1137.2	1569.9	–	–
323.15 K, x1 = 0.2846	–	–	46.9	–
323.15 K, x1 = 0.289	1145.6	1566.7	–	–
323.15 K, x1 = 0.2912	–	–	–	2.295
323.15 K, x1 = 0.34	–	–	46.6	–
323.15 K, x1 = 0.3456	1153.8	1562.9	–	–
323.15 K, x1 = 0.3866	–	–	46.4	–
323.15 K, x1 = 0.4015	–	–	–	3.991
323.15 K, x1 = 0.4217	1162.6	1558.9	–	–
323.15 K, x1 = 0.4807	–	–	–	5.631
323.15 K, x1 = 0.486	–	–	46.1	–
323.15 K, x1 = 0.5485	1173.4	1553.2	–	–
323.15 K, x1 = 0.5777	–	–	45.8	–
323.15 K, x1 = 0.5815	–	–	–	7.929
323.15 K, x1 = 0.6029	1177.2	1551.3	–	–
323.15 K, x1 = 0.6641	–	–	–	10.77
323.15 K, x1 = 0.6943	–	–	45.6	–
323.15 K, x1 = 0.7232	1184.2	1548	–	–
323.15 K, x1 = 0.7779	–	–	45.3	–
323.15 K, x1 = 0.7855	–	–	–	18.47
323.15 K, x1 = 0.8005	1188	1546.4	–	–
323.15 K, x1 = 0.835	–	–	45.1	–
323.15 K, x1 = 0.8575	1190.6	1545.2	–	–
323.15 K, x1 = 0.8875	–	–	–	27.32
323.15 K, x1 = 0.925	–	–	45.1	–
323.15 K, x1 = 0.9305	–	–	–	34.39
323.15 K, x1 = 0.9315	1193.8	1544.1	–	–
323.15 K, x1 = 0.9705	–	–	–	40.41
323.15 K, x1 = 1	1196.7	1543.5	45.1	45.56
